Measurements: PMC5447021, “TNF Lectin-Like Domain Restores Epithelial Sodium Channel Function in Frameshift Mutants Associated with Pseudohypoaldosteronism Type 1B” (Frontiers in Immunology, 2017)
“Also recorded” adds a separate entry of the source.

Experiments:
αE272fs = experiment: Membrane abundance of αE272fs; assay type: cell-based, human; conditions: 200 nM, relative to WT control (=1), own control 0.35 ± 0.06, p < 0.001 vs control
Procedure: (§1) Cell surface biotinylation was performed as previously described ([26]). In brief, A549 cells or transiently transfected HEK-293 cells were grown in 10 cm dishes in 37°C, 5% CO2 incubator in DMEM medium supplemented with 5% FBS. […] Medium was aspirated, and then cells were washed twice with 10 ml ice-cold phosphate-buffered saline (PBS), covered with 2.5 mg EZ-Link Sulfo-NHS-SS-Biotin (Thermo Scientific, Rockford, USA), dissolved in 10 ml ice-cold PBS, and incubated at 4°C with gentle agitation for 30 min. Fifty milliliters of quenching solution were added to cells; then cells were scraped in solution and transferred to fresh 50 ml tube. Cell suspension was centrifuged at 500 × g for 3 min. Supernatant was discarded, and 5 ml of Tris-buffered saline (TBS) was added to the cell pellet. The cell pellet was resuspended and centrifuged at 500 × g for 3 min. Supernatant was discarded and cell pellet was resuspended in lysis buffer containing protease inhibitor cocktail (10 µM pepstatin A, 10 µM phenylmethylsulfonyl fluoride, and 10 µM leupeptin) and transferred to fresh 1.5 ml centrifuge tube. Cell pellet was then homogenized on ice by ultrasonication using 1 s bursts and incubated on ice for at least 30 min. Intact cells and nuclei were pelleted by centrifugation at 10,000 × g for 2 min under cooling conditions. […] Exposed films were scanned and quantified using ImageJ (NIH, MD, USA). […]

αS452fs = experiment: Membrane abundance of αS452fs; assay type: cell-based, human; conditions: 200 nM, relative to WT control (=1), own control 1.11 ± 0.25, p < 0.001 vs control
Procedure: as §1

αR448fsβγ-ENaC = molecular target: T1, αR448fsβγ-ENaC (Homo sapiens, UniProt P37088+P51168+P51170); experiment: Whole-cell patch clamp, αR448fs + WT βγ; assay type: cell-based; conditions: αR448fsβγ preincubated with 100 units PNGase F; 200 nM solnatide or 20 nM TNF; n = 3
T1 construct: expressed in transfected cells; host or cells: HEK-293
T1 sequence (P37088 with tags, fused parts or gaps): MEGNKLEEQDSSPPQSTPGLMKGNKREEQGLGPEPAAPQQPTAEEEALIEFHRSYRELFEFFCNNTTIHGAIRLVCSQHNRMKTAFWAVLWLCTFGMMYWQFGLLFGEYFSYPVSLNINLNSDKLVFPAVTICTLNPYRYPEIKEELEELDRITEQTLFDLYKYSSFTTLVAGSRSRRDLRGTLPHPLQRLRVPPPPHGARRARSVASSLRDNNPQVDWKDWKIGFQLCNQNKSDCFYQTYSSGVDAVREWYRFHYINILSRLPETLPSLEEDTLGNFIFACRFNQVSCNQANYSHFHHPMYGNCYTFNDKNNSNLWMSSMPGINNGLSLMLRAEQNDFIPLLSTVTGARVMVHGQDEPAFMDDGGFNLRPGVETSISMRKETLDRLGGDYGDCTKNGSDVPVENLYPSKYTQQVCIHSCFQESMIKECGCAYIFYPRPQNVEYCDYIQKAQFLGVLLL
T1 sequence (P51168 whole entry partner): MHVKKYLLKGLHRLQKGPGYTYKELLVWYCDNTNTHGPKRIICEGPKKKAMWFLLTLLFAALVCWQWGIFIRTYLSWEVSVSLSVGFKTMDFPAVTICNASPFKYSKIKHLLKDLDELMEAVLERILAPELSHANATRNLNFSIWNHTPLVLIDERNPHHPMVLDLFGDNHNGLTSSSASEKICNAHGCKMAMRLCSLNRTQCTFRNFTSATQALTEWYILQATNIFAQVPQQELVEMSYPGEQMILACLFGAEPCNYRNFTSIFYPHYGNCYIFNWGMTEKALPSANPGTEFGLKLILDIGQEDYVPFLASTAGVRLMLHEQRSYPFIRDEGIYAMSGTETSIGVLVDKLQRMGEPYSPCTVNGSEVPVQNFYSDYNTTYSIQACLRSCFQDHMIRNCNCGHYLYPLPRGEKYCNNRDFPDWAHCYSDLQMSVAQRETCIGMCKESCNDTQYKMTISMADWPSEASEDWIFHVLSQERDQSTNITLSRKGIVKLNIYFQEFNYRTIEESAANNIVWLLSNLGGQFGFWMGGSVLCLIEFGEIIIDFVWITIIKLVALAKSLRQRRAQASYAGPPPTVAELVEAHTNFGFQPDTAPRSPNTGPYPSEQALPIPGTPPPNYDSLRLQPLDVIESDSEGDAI
T1 sequence (P51170 whole entry partner): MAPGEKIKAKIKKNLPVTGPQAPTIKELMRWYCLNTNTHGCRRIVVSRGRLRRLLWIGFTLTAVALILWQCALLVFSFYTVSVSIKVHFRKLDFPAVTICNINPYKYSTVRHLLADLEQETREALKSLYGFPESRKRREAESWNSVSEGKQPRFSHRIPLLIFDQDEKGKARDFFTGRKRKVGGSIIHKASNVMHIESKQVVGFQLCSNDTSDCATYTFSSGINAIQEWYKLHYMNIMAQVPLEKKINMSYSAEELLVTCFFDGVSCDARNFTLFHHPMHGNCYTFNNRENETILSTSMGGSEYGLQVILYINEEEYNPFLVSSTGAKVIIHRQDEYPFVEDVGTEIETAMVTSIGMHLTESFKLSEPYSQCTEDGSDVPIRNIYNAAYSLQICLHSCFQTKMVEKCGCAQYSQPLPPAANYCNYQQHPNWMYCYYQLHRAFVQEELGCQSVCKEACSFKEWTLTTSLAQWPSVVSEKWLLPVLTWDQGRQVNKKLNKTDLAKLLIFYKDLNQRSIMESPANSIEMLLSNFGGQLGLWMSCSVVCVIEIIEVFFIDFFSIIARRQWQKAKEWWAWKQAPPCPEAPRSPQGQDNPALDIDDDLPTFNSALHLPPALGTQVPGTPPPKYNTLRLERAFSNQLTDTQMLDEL
Procedure: Currents were recorded with the patch clamp method in the whole-cell mode. […] Chemicals for pipette and bathing solutions were supplied by Sigma-Aldrich (Vienna, Austria). Electrophysiological measurements were carried out with an Axopatch 200B patch clamp amplifier (Axon Instruments, CA, USA).

[1] = system: αR438fs (co-expressed with βγ-ENaC); experiment: Whole-cell patch clamp, αR438fs + WT βγ; assay type: cell-based, human; conditions: read-out: EC50, solnatide, HEK-293, whole-cell, -100 mV, n = 7
Procedure: Point mutations of α-, β-, γ- and δ-hENaC and PHA1B frameshift mutations of α-hENaC were prepared with the QuikChange Lightning Site-Directed Mutagenesis Kit (Agilent Technologies, CA, USA). Mutagenic primers were designed individually with the Primer Design Program provided on the producer’s website or for the frameshift mutations the same base changes as reported in patients (see Table 2) were performed. Primers were ordered from Sigma-Aldrich, Vienna, Austria.
HEK-293 cells were transfected 1 day after cell seeding using X-tremeGENE HP DNA transfection reagent (Roche Diagnostics, Mannheim, Germany) according to the manufacturer’s protocol. A set of WT or mutant αβγ- or δβγ-hENaC, or α-, β-, γ-, or δ-hENaC alone was used, and the ratio of DNA to transfection reagent was 1:3. The expression was highest 48–72 h after transfection.
Electrophysiological experiments were performed as described in detail by Shabbir et al. ([16]). […] Currents were recorded with the patch clamp method in the whole-cell mode. The chamber contained 1 ml of the bath solution of the following composition (in mM): 145 NaCl, 2.7 KCl, 1.8 CaCl2, 2 MgCl2, 5.5 glucose, and 10 HEPES, adjusted to pH 7.4 with 1 M NaOH solution. Micropipettes were pulled from thin-walled borosilicate glass capillaries (Harvard Apparatus, Holliston, MA, USA) with a DMZ Zeitz Puller to obtain electrode resistances ranging from 2 to 5 MΩ. […]

SMILES: C[C@@H]1NC(=O)CNC(=O)[C@H](CCC(=O)O)NC(=O)[C@@H]2CCCN2C(=O)[C@H]([C@@H](C)O)NC(=O)[C@H](CCC(=O)O)NC(=O)[C@H](CCCNC(=N)N)NC(=O)[C@H](CCC(N)=O)NC(=O)CNC(=O)[C@@H](N)CSSC[C@@H](C(=O)O)NC(=O)[C@H](Cc2ccc(O)cc2)NC(=O)[C@H](Cc2c[nH]c3ccccc23)NC(=O)[C@@H]2CCCN2C(=O)[C@H](CCCCN)NC(=O)[C@H](C)NC(=O)[C@H](CCC(=O)O)NC1=O [solnatide, L-cysteine, L-cysteinylglycyl-L-glutaminyl-L-arginyl-L-α-glutamyl-L-threonyl-L-prolyl-L-α-glutamylglycyl-L-alanyl-L-α-glutamyl-L-alanyl-L-lysyl-L-prolyl-L-tryptophyl-L-tyrosyl-, cyclic (1→17)-disulfide]
- Membrane abundance, solnatide 5 min (αE272fs; 5 min): 0.72 ± 0.03
- Membrane abundance, solnatide 10 min (αE272fs; 10 min): 0.64 ± 0.05
- Membrane abundance, solnatide 5 min (αS452fs; 5 min): 1.36 ± 0.11
- Membrane abundance, solnatide 10 min (αS452fs; 10 min): 1.94 ± 0.08
- Current activation after PNGase F (αR448fsβγ-ENaC): no current could be induced; also recorded: neither TNF nor solnatide potentiated amiloride-sensitive current in αR448fsβγ-ENaC following PNGase F treatment
- EC50 [1]: 56.6 ± 8 nM
